“Also recorded” adds a separate entry of the source.
Legend:
[1] = target: T1, ERRα (Homo sapiens, UniProt P11474); experiment: Competitive [3H] genistein binding whole cell assay in ERRα-positive SK-BR-3 cells; parameters: endogenous in cells; host or cells: SK-BR-3; details: FIG. 4
T1 sequence (P11474 1-423): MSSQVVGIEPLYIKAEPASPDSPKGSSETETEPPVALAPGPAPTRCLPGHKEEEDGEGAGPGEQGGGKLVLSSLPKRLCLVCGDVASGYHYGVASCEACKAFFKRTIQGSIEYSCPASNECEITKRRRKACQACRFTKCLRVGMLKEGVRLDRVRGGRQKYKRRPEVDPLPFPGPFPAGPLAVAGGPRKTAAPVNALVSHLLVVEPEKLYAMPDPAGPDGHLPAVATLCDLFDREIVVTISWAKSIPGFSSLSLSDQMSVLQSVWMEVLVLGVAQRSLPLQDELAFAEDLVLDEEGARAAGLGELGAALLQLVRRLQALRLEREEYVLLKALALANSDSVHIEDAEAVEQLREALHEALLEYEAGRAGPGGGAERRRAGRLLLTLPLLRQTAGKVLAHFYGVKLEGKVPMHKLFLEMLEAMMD
Procedure: In order to directly measure the binding affinities of agonists and inverse agonists to ERRα, we performed a competitive ERR binding whole cell assay using ERRα-positive SK-BR-3 cells. This method is developed based on the ER binding assay posted by the National Toxicology Program at the NIEHS <<http://iccvam.niehs.nih.gov/methods/endodocs/final/erbndbrd/erbdappx/B1.pdf>>. […] After the cells were washed twice with PBS, 250 μl ethanol will be added to each well for 20 min. Aliquots of ethanol extract was mixed with scintillation liquid for radioactivity measurements. The experiments have been performed in triplicate.
In addition to reporter activity assay, in order to evaluate the interaction of chalcones with ERRα, a competitive binding assay was performed.
Referring to FIG. 4, SK-BR-3 cells, which are positive for ERRα, were incubated with 1 μM of [3H] GEN and increasing concentrations of unlabeled GEN or Compound Nos. 1-9 or 7-5. After 1 h of incubation, the cells were washed with 1× PBS, and [3H] GEN was then extracted from the cells by an incubation of 30 min in 250 μl of ethanol. Values represent the mean±SD.

[2] = target: T2, ERRβ (Homo sapiens, UniProt O95718); experiment: Transient transfection luciferase assay with pSG5-ERRb and SF1-SV40 reporter in HeLa cells; assay type: cell-based; details: for IC50: HeLa cells, 24 h, average of at least two experiments; for Antagonistic properties on ERRb (in words): transient transfection
T2 construct: expressed in transfected cells; host or cells: HeLa
T2 sequence (O95718 1-433): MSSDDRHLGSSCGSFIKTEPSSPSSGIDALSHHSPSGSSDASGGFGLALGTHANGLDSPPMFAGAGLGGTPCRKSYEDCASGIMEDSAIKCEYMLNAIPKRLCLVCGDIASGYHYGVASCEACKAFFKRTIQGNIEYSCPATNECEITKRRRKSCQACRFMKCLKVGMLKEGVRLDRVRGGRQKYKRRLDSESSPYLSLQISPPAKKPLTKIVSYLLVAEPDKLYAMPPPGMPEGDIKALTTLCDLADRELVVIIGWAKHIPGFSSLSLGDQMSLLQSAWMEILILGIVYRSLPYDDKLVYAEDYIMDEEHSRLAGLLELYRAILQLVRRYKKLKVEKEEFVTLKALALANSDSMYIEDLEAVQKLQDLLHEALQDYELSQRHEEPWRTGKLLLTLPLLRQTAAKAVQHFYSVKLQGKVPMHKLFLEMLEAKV

[3] = target: T3, GAL4-human ERRα LBD fusion (Homo sapiens, UniProt P11474); experiment: Transient transfection luciferase assay, GAL4-human ERRα LBD fusion with Gal4-TK-Luc reporter in HeLa cells; assay type: cell-based; details: pM-ERRα LBD, 24 h, mean ± SD
T3 construct: GAL4-human ERRα LBD fusion expression plasmid; expressed in transfected cells; host or cells: HeLa
T3 sequence (P11474 193-421 limits assumed): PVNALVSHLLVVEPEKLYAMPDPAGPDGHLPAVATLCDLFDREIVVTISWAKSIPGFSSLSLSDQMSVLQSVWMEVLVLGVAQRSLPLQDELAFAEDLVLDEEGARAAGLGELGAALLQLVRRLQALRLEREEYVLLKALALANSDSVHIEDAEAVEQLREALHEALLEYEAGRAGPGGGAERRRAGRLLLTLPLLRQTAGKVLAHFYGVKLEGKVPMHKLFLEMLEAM
Procedure: Referring to FIG. 2, we have also prepared GAL4-ERRα expression plasmid and luciferase reporter plasmids with GAL4 response element. This is a more sensitive assay method than that using pSG5-ERRα and ERE luciferase reporter plasmids.
(§1) To evaluate the functional significance of the interaction of chalcones with ERRα, we incubated these compounds with HeLa cells which were transiently transfected with human ERRα expression plasmid and a luciferase reporter plasmid containing SF1 binding site. […] In order to confirm the results above, HeLa cells were transiently transfected with GAL4-human ERRα LBD fusion expression plasmid and a luciferase reporter plasmid containing GAL4 binding site. […] Most of the compounds, however, have similar IC50 value, and have a similar potency.
(§2) Referring to FIG. 2, HeLa cells were cotransfected with pM-ERRα LBD (0.5 μg) and luciferase reporter plasmid containing GAL4 binding site and TK promoter (0.25 μg). The transfected cells were incubated with Compound No. 1-9 for 24 h. After cells were washed with 1× PBS, luciferase activity was measured. Values represent the mean±SD.

[4] = target: T4, human ERRα-1 (Homo sapiens, UniProt P11474); experiment: Transient transfection luciferase assay, full length human ERRα with SF1-SV40-Luc reporter in HeLa cells; assay type: cell-based; details: for Antagonism of constitutive activity of ERRα (in words) / IC50: HeLa cells; for Antagonism of constitutive activity of ERRα (in words): SF1 binding site reporter, FIG. 1; for IC50: pSG5-ERRα, 24 h, mean ± SD
T4 construct: expressed in transfected cells; host or cells: HeLa
T4 sequence (P11474 1-423): T1 sequence (P11474 1-423)
Procedure: HeLa cells were cultured in MEM Earle's salts medium supplemented with 5% charcoal/dextran-treated fetal bovine serum. Cells were then divided and cultured in 6-well plates until 80% confluence was achieved. The cells were next transfected with 4 μg Lipofectin. An equal amount of total DNA was used in all transfections by including appropriate amounts of the empty vector, pSG5, in addition to specific amounts of pSG5-ERRα and luciferase reporter plasmids (ERRE (ERRα recognizes an ERE half site)-containing reporter and aromatase promoter I.3-containing reporter). Following an overnight incubation, the medium containing Lipofectin and DNA was removed, and the cells cultured in a growth medium containing 5% charcoal/dextran-treated fetal bovine serum with or without ligands. After a 24-hour incubation, the cells was harvested from the plates by scraping, and the luciferase activities in the cell lysates (with the same amounts of protein) was measured according to the manufacturer's instructions (Promega). All experiments were performed in triplicate.
as §1
as §2, with “1,” for “2,”, “pSG5-ERRα” for “pM-ERRα LBD”, “SF1” for “GAL4”, “SV40” for “TK”

[5] = target: T5, ERβ (Homo sapiens, UniProt Q92731); experiment: Transient transfection luciferase assay with pCI-ERb and ERE-SV40 reporter in HeLa cells, with 100 pM estradiol; assay type: cell-based; details: for IC50: HeLa cells, in the presence of 100 pM of estradiol, 24 h; for Antagonistic properties on ERb (in words): transient transfection
T5 construct: expressed in transfected cells; host or cells: HeLa
T5 sequence (Q92731 whole entry, species assumed): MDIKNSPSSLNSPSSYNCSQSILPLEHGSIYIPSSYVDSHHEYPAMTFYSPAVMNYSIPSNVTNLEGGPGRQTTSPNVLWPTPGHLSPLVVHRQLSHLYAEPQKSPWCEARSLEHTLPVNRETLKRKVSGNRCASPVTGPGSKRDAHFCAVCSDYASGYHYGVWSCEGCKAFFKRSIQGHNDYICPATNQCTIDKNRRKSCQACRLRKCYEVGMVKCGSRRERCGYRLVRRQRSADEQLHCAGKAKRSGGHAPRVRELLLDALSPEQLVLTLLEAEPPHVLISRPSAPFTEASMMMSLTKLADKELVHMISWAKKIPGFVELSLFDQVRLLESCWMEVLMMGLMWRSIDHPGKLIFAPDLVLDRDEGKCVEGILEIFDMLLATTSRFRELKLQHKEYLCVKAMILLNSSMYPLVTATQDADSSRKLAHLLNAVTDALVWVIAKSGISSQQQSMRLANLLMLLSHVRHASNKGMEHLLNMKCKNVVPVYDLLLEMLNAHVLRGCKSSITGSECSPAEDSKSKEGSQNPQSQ

With `COc1cccc(/C=C/C(=O)c2ccc(O)cc2O)c1OC` [Compound No. 1-9, 2′,4′-Dihydroxy-2,3-dimethoxychalcone] the “Inhibition of binding of [3H] labeled genistein (in words)” value [1] was “competitively inhibited the binding of [3H] labeled genistein in a dose-dependent manner”, the IC50 [2] was 3.5 µM and the “Antagonistic properties on ERRb (in words)” value [2] was “showed antagonistic properties”. The IC50 [3] was 1.1e+06 ± 700000 pM, the “Rank of potency as antagonist of ERRα among the chalcones” value [4] was “most potent antagonist among these chalcones; also recorded: more potent antagonist of ERRα among these seven chalcones” and the “Antagonism of constitutive activity of ERRα (in words)” value [4] was “antagonists of ERRα”. For the same molecule, the IC50 [4] was 5.7 ± 1.8 µM, the IC50 [5] was 4.6 µM and the “Antagonistic properties on ERb (in words)” value [5] was “showed antagonistic properties”.
In the case of `O=C(/C=C/c1ccccc1O)c1ccc(O)cc1O` [Compound No. 7-5, 2,2′,4′-Trihydroxychalcone], the “Inhibition of binding of [3H] labeled genistein (in words)” value [1] is reported as “competitively inhibited the binding of [3H] labeled genistein in a dose-dependent manner”, the IC50 [2] is reported as 6.7 µM and the “Antagonistic properties on ERRb (in words)” value [2] is reported as “showed antagonistic properties”. For the same molecule, the IC50 [3] was 900000 ± 400000 pM, the “Rank of potency as antagonist of ERRα among the chalcones” value [4] was “more potent antagonist of ERRα among these seven chalcones” and the “Antagonism of constitutive activity of ERRα (in words)” value [4] was “antagonists of ERRα”. The IC50 [4] was 6.2 ± 1 µM, the IC50 [5] was 7.4 µM and the “Antagonistic properties on ERb (in words)” value [5] was “showed antagonistic properties”.
